By IC50 is commonly meant the concentration that gives 50% inhibition. Usually EC50 stands for the concentration giving half of the maximal effect. A lower EC50 goes with a more potent agent.

Data on eight molecules can be found in patent US20120164104A1, “Composition and Methods of Treating Viral Infections and Viral Induced Tumors” (Chimerix, Inc., priority 2009, published 2012).

One experiment has as its system OVCAR-3. The experiment is described as follows: Cell proliferation assay (MTS or SRB), OVCAR-3. It is filed as cell-based, human. The settings on record: OVCAR-3, Ovarian, 3 days; read-out: IC50 (cell growth inhibition). On the procedure: (§1) In vitro cell proliferation assays were performed using a 96-well plate based MTSassay (CellTiter 96° AqueousOne Solution Cell Proliferation Assay, Promega) or SRB (Sulforhodamine-B) assay (1-3). Briefly, cells were plated in 100 μl medium on day 0 in 96-well microtiter plates (Falcon #3072). On day 1, 10 μl of serial dilutions of each compound (Nine 1:2 dilutions with a starting concentration of 100 μM; in some cases, a starting concentration of 400 μM (CMX001 or Cidofovir) or 1 μM (some standard agents)) were added in triplicates to the plates. For standard agents using DMSO as solvent, serial dilutions of DMSO with a starting concentration of 0.5% were also included as a vehicle control.
(§2) After incubation for 3 days at 37° C. in a humidified incubator, viable cells were measured either by MTS or SRB assay. For MTS assay, 20 μl of a 20:1 mixture of (3-(4,5-dimethylthiazol-2-yl)-5-(3-carboxymethoxyphenyl)-2-(4-sulfophenyl)-2H-tetrazolium, inner salt (MTS, 2 mg/ml) and an electron coupling reagent, phenazine methosulfate (PMS, 0.92 mg/ml in DPBS), was added to each well and incubated for 3 hours at 37° C. Absorbance was measured using a BioTek Synergy™ HT Multiple Detection microplate reader at 490 nm. For SRB assay, cells were fixed in situ with 50 μL of cold trichloroacetic acid (TCA, final concentration at 10% w/v) for 60 minutes. Cells were then washed 5 times with H2O and air-dried.
(§3) Next, cells were stained with 20 μL of 0.2% SRB in 1% acetic acid and incubated at room temperature for 30 minutes and unbound SRB was removed by washing 5 times with 1% acetic acid and air-dried. Finally, bound SRB stain was solubilized in 50 μL of 50 μM Tris buffer before taking an optical density measurement at 570 nm using the BioTek microplate reader. The growth inhibition data were expressed as the percentage of cell survival calculated from the background corrected absorbance. The surviving fraction of cells was determined by dividing the mean absorbance values of the test agent-treated samples by the mean absorbance values of untreated control. […]

The subject of a further experiment is SK-OV-3. The experiment in a line: Cell proliferation assay (MTS or SRB), SK-OV-3. To be noted: SK-OV-3, Ovarian, 3 days; read-out: IC50 (cell growth inhibition). It is filed as cell-based, human. The procedure:
as §1, §2, §3

The subject of the next experiment is C33A. The experiment is described as follows: Cell proliferation assay (MTS or SRB), C33A. It is filed as cell-based, human. The settings on record: Cervical, 3 days, read-out: IC50 (cell growth inhibition). On the procedure:
as §1, §2, §3

Another experiment concerns SiHa. The experiment is described as follows: Cell proliferation assay (MTS or SRB), SiHa. It is filed as cell-based, human. To be noted: Cervical, 3 days, read-out: IC50 (cell growth inhibition). The procedure: as §1, §2, §3
In another experiment the test system is A2058. The experiment in a line: Cell proliferation assay (MTS or SRB), A2058. It is filed as cell-based. To be noted: Homo sapiens, 72 h; A2058, Skin (melanoma), 3 days; read-out: IC50 (cell growth inhibition). The procedure:
as §1, §2
(§4) Next, cells were stained with 20 μL of 0.2% SRB in 1% acetic acid and incubated at room temperature for 30 minutes and unbound SRB was removed by washing 5 times with 1% acetic acid and air-dried. Finally, bound SRB stain was solubilized in 50 μL of 50 μM Tris buffer before taking an optical density measurement at 570 nm using the BioTek microplate reader. The growth inhibition data were expressed as the percentage of cell survival calculated from the background corrected absorbance. The surviving fraction of cells was determined by dividing the mean absorbance values of the test agent-treated samples by the mean absorbance values of untreated control.
(§5) Raw data were acquired using a BioTek Synergy™ HT Multiple Detection microplate reader and imported into Microsoft Excel for analysis. The average signal of each treatment was calculated from the triplicates after subtracting the blank signals. The percentage survival values were calculated using the following formula: % survival=(average signal of the drug treatment/average signal of untreated controls)×100. The data were finally imported into the Prism 4 software (GraphPad Software, San Diego, Calif.) to generate the dose-activity curves using non-linear regression curve fit and to calculate the IC50 values.

A further experiment relates to SK-MEL-2. The experiment in a line: Cell proliferation assay (MTS or SRB), SK-MEL-2. It is filed as cell-based. To be noted: Homo sapiens, 72 h; SK-MEL-2, Skin (melanoma), 3 days; read-out: IC50 (cell growth inhibition). On the procedure:
as §1, §2, §4, §5

For a further experiment, the system named is DU 145. The experiment is described as follows: Cell proliferation assay (MTS or SRB), DU 145. It is filed as cell-based. The settings on record: Homo sapiens, 72 h; DU 145, Prostate, 3 days; read-out: IC50 (cell growth inhibition). The procedure:
as §1, §2, §3

For a further experiment, the system named is A549. The experiment is described as follows: Cell proliferation assay (MTS or SRB), A549. It is filed as cell-based. To be noted: Homo sapiens, 72 h; A549, Lung, 3 days; read-out: IC50 (cell growth inhibition). On the procedure:
as §1, §2, §3

A further experiment relates to MCF-7. The experiment in a line: Cell proliferation assay (MTS or SRB), MCF-7. It is filed as cell-based. The settings on record: Homo sapiens, MCF7, 72 h; MCF-7, Breast, 3 days; read-out: IC50 (cell growth inhibition). On the procedure:
as §1, §2, §3

Another experiment has as its system PC-3. The experiment in a line: Cell proliferation assay (MTS or SRB), PC-3. The settings on record: Homo sapiens, 72 h; PC-3, Prostate, 3 days; read-out: IC50 (cell growth inhibition). It is filed as cell-based. The procedure: as §1, §2, §3
A further experiment has as its system H460. The experiment in a line: Cell proliferation assay (MTS or SRB), H460. It is filed as cell-based. The settings on record: Homo sapiens, NCI-H460, 72 h; H460, Lung, 3 days; read-out: IC50 (cell growth inhibition). On the procedure:
as §1, §2, §3

Another experiment relates to MDA-231. The experiment in a line: Cell proliferation assay (MTS or SRB), MDA-231. The settings on record: Homo sapiens, MDA-MB-231, 72 h; MDA-231, Breast, 3 days; read-out: IC50 (cell growth inhibition). It is filed as cell-based. On the procedure:
as §1, §2, §3

The subject of the next experiment is SK-HEP-1. The experiment in a line: Cell proliferation assay (MTS or SRB), SK-HEP-1. It is filed as cell-based. The settings on record: Homo sapiens, SK-HEP1, 72 h; SK-HEP-1, Liver, 3 days; read-out: IC50 (cell growth inhibition). The procedure:
as §1, §2, §3

In a further experiment the test system is SW 780. The experiment in a line: Cell proliferation assay (MTS or SRB), SW 780. It is filed as cell-based. To be noted: Homo sapiens, SW780, 72 h; SW 780, Bladder, 3 days; read-out: IC50 (cell growth inhibition). The procedure:
as §1, §2, §3

The subject of a further experiment is Caki-1. The experiment is described as follows: Cell proliferation assay (MTS or SRB), Caki-1. It is filed as cell-based. The settings on record: Homo sapiens, 72 h; Caki-1, Kidney, 3 days; read-out: IC50 (cell growth inhibition). The procedure:
as §1, §2, §3

In another experiment the test system is Hep G2. The experiment is described as follows: Cell proliferation assay (MTS or SRB), Hep G2. It is filed as cell-based. To be noted: Homo sapiens, HepG2, 72 h; Hep G2, Liver, 3 days; read-out: IC50 (cell growth inhibition). On the procedure: as §1, §2, §3
The test system of another experiment is Caki-2. The experiment is described as follows: Cell proliferation assay (MTS or SRB), Caki-2. It is filed as cell-based. To be noted: Homo sapiens, 72 h; Caki-2, Kidney, 3 days; read-out: IC50 (cell growth inhibition). On the procedure:
as §1, §2, §3

The subject of another experiment is SCaBER. The experiment is described as follows: Cell proliferation assay (MTS or SRB), SCaBER. The settings on record: Homo sapiens, 72 h, Bladder, 3 days, read-out: IC50 (cell growth inhibition). It is filed as cell-based. On the procedure:
as §1, §2, §3

For the next experiment, the system named is PANC-1. The experiment is described as follows: Cell proliferation assay (MTS or SRB), PANC-1. It is filed as cell-based. The settings on record: Homo sapiens, 72 h; PANC-1, Pancreatic, 3 days; read-out: IC50 (cell growth inhibition). On the procedure:
as §1, §2, §3

In the next experiment the test system is MIA PaCa-2. The experiment in a line: Cell proliferation assay (MTS or SRB), MIA PaCa-2. To be noted: Homo sapiens, 72 h; MIA PaCa-2, Pancreatic, 3 days; read-out: IC50 (cell growth inhibition). It is filed as cell-based. The procedure:
as §1, §2, §3

A further experiment deals with HCT-116. The experiment is described as follows: Cell proliferation assay (MTS or SRB), HCT-116. It is filed as cell-based, human. The settings on record: HCT-116, Colon, 3 days; read-out: IC50 (cell growth inhibition). On the procedure: as §1, §2, §3
The next experiment has as its system HT-29. The experiment in a line: Cell proliferation assay (MTS or SRB), HT-29. It is filed as cell-based, human. The settings on record: HT-29, Colon, 3 days; read-out: IC50 (cell growth inhibition). On the procedure:
as §1, §2, §3

The subject of the next experiment is BK virus. The experiment is described as follows: Antiviral activity against BK virus in RPTEC cells (viral DNA by qPCR, 5 days). To be noted: for EC50: Betapolyomavirus hominis, RPTEC, RPTEC cells. It is filed as cell-based. The procedure: In order to test the activity of CMX001 to inhibit replication of BK virus, stocks of BK virus were prepared in HFF cells and dilutions of the virus stocks were used to infect primary human renal tubular epithelial cells (RPTECs). CMX001 were then added to the wells containing the infected cells and the plates were incubated for 5 days. Total DNA was prepared from the plates and viral DNA was quantified by qPCR.
A general note: Real-time PCR tracks product formation cycle by cycle.

As to `N.N.[Cl][Pt][Cl]` [Cisplatin], the IC50 in the experiment with OVCAR-3 is 4900 nM; in the experiment with SK-OV-3 it was 9200 nM; in the experiment with C33A, 1200 nM; in the experiment with SiHa, 15500 nM.

As to `CN(C)/N=N/c1[nH]cnc1C(N)=O` [DTIC, Dacarbazine], the IC50 with A2058 and with SK-MEL-2 was > 100000 nM throughout.

Turning to `CC(=O)O[C@@]12CO[C@@H]1C[C@H](O)[C@@]1(C)C(=O)[C@H](O)C3=C(C)[C@@H](OC(=O)[C@H](O)[C@@H](NC(=O)OC(C)(C)C)c4ccccc4)C[C@@](O)([C@@H](OC(=O)c4ccccc4)[C@H]21)C3(C)C` [Docetaxel], the IC50 worked out at 2.4 nM with DU 145; 1.4 nM in the experiment with A549; 15 nM in the experiment on MCF-7; 1.1 nM in the experiment on PC-3; 4.2 nM in the experiment with H460; 2.8 nM in the experiment on MDA-231.

In the case of `COc1cccc2c1C(=O)c1c(O)c3c(c(O)c1C2=O)C[C@@](O)(C(=O)CO)C[C@@H]3O[C@H]1C[C@H](N)[C@H](O)[C@H](C)O1` [Doxorubicin], the IC50 is 29 nM with SK-HEP-1; 160 nM with SW 780; 74 nM with Caki-1; 50 nM with Hep G2; 1230 nM in the experiment on Caki-2; 60 nM in the experiment on SCaBER.

Consider `Nc1ccn([C@@H]2O[C@H](CO)[C@@H](O)C2(F)F)c(=O)n1` [Gemcitabine], for which the IC50 with PANC-1 amounted to 130 nM; with MIA PaCa-2, 29 nM.

For `O=C1[O][Pt]2([NH][C@@H]3CCCC[C@H]3[NH]2)[O]C1=O` [Oxaliplatin], the figures for the IC50 in the experiment on HCT-116 and in the experiment on HT-29 were 480 nM and 360 nM, respectively.

In the case of `Nc1nc(O)c2ncn(COC(CO)CO)c2n1` [ganciclovir], the figures for the EC50 in the experiment on BK virus (virus dilution 1:10), in the experiment on BK virus (virus dilution 1:50) and in the experiment on BK virus (virus dilution 1:100) were 89000 nM, > 100000 nM and 70800 nM, respectively. Moreover, the “activity against BK virus replication” value with BK virus (RPTECs, in words) was “essentially inactive”.

As for `Cn1nnc2c(C(N)=O)ncn2c1=O` [temozolomide], the IC50 with A2058 and in the experiment on SK-MEL-2 was > 100000 nM each time.
